Test results as given in ChEMBL document CHEMBL1201862, “PubChem BioAssay data set” (2004).
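Grown in 96-well plates, cells were treated for 48 hours with each compound at five concentrations. Insufficient inhibition: endpoint recorded as highest concentration tested. Abbreviation: GI50, concentration required for 50% inhibition of growth.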 Activity calls are given as the source filed them. Rule as the data show it: active = GI50 up to about 1.1 µM and inactive = higher.

Legend:
Experiment in all cases: NCI tumour cell line growth inhibition, 48 h
SK-OV-3 = test system: SK-OV-3
MOLT-4 = test system: MOLT-4
LXFL 529 = test system: LXFL 529
OVCAR-3 = test system: OVCAR-3
HCC 2998 = test system: HCC 2998
HL-60 = test system: HL-60
NCI-H23 = test system: NCI-H23
ACHN = test system: ACHN
CAKI-1 = test system: CAKI-1
OVCAR-5 = test system: OVCAR-5
SNB-19 = test system: SNB-19
U-251 = test system: U-251
SR = test system: SR
T47D = test system: T47D
EKVX = test system: EKVX
MDA-N = test system: MDA-N
MDA-MB-435 = test system: MDA-MB-435
HCT-15 = test system: HCT-15
DU-145 = test system: DU-145

Nn1c(=O)n(Cc2ccccc2)n(-c2ccccc2)c1=O
GI50 (SK-OV-3): > 100 µM (inactive)
GI50 (MOLT-4): > 100 µM (inactive)
GI50 (LXFL 529): > 100 µM (inactive)
GI50 (OVCAR-3): > 100 µM (inactive)
GI50 (HCC 2998): > 100 µM (inactive)
GI50 (HL-60): > 100 µM (inactive)
GI50 (NCI-H23): > 100 µM (inactive)
GI50 (ACHN): > 100 µM (inactive)
GI50 (CAKI-1): > 100 µM (inactive)
GI50 (OVCAR-5): > 100 µM (inactive)
GI50 (SNB-19): > 100 µM (inactive)
GI50 (U-251): > 100 µM (inactive)
GI50 (SR): > 100 µM (inactive)

CCOC(=O)c1c(Br)c(-c2ccc([N+](=O)[O-])cc2)c(Br)n1C
GI50 (SK-OV-3): > 10 µM (inactive)
GI50 (MOLT-4): > 10 µM (inactive)
GI50 (OVCAR-3): > 10 µM (inactive)
GI50 (T47D): > 10 µM (inactive)
GI50 (HCC 2998): > 10 µM (inactive)
GI50 (EKVX): 9.55 µM (inactive)
GI50 (HL-60): > 10 µM (inactive)
GI50 (NCI-H23): > 10 µM (inactive)
GI50 (ACHN): > 10 µM (inactive)
GI50 (CAKI-1): > 10 µM (inactive)
GI50 (OVCAR-5): > 10 µM (inactive)
GI50 (SNB-19): > 10 µM (inactive)
GI50 (MDA-N): > 10 µM (inactive)
GI50 (MDA-MB-435): > 10 µM (inactive)
GI50 (U-251): > 10 µM (inactive)
GI50 (HCT-15): > 10 µM
GI50 (DU-145): > 10 µM (inactive)
GI50 (SR): > 10 µM (inactive)

CCCCCCCCCCCCCCCCNc1ccc2c(c1)OCCOCCOCCOCCO2
GI50 (SK-OV-3): 3.4 µM (inactive)
GI50 (MOLT-4): 2.5 µM (inactive)
GI50 (OVCAR-3): 2.71 µM (inactive)
GI50 (T47D): 3.11 µM (inactive)
GI50 (HCC 2998): 4.03 µM (inactive)
GI50 (EKVX): 4.03 µM (inactive)
GI50 (HL-60): 2.07 µM (inactive)
GI50 (NCI-H23): 3.62 µM (inactive)
GI50 (ACHN): 3.05 µM (inactive)
GI50 (CAKI-1): 4 µM (inactive)
GI50 (OVCAR-5): 3.61 µM (inactive)
GI50 (SNB-19): 3.37 µM (inactive)
GI50 (MDA-N): 3.14 µM (inactive)
GI50 (MDA-MB-435): 3.17 µM (inactive)
GI50 (U-251): 2.49 µM (inactive)
GI50 (HCT-15): 2.88 µM
GI50 (DU-145): 4.24 µM (inactive)
GI50 (SR): 3.29 µM (inactive)

Nn1c(Cc2ccc(Cl)cc2)n[nH]c1=O
GI50 (SK-OV-3): > 100 µM (inactive)
GI50 (MOLT-4): > 100 µM (inactive)
GI50 (OVCAR-3): > 100 µM (inactive)
GI50 (T47D): > 100 µM (inactive)
GI50 (HCC 2998): > 100 µM (inactive)
GI50 (EKVX): > 100 µM (inactive)
GI50 (HL-60): > 100 µM (inactive)
GI50 (NCI-H23): > 100 µM (inactive)
GI50 (ACHN): > 100 µM (inactive)
GI50 (CAKI-1): 50.5 µM (inactive)
GI50 (OVCAR-5): > 100 µM (inactive)
GI50 (SNB-19): > 100 µM (inactive)
GI50 (MDA-N): > 100 µM (inactive)
GI50 (MDA-MB-435): > 100 µM (inactive)
GI50 (U-251): > 100 µM (inactive)
GI50 (HCT-15): > 100 µM
GI50 (DU-145): > 100 µM (inactive)
GI50 (SR): > 100 µM (inactive)

CC1(C)[C@@H]2CC[C@@]1(C)[C@H](O)[C@@H]2SCc1ccccc1
GI50 (SK-OV-3): 20.5 µM (inactive)
GI50 (MOLT-4): 16.5 µM (inactive)
GI50 (OVCAR-3): 17.1 µM (inactive)
GI50 (T47D): 24 µM (inactive)
GI50 (HCC 2998): 19.5 µM (inactive)
GI50 (EKVX): 15.3 µM (inactive)
GI50 (HL-60): 25.5 µM (inactive)
GI50 (NCI-H23): 14.1 µM (inactive)
GI50 (ACHN): 11.7 µM (inactive)
GI50 (CAKI-1): 25.1 µM (inactive)
GI50 (OVCAR-5): 17 µM (inactive)
GI50 (SNB-19): 16.8 µM (inactive)
GI50 (MDA-N): 18.9 µM (inactive)
GI50 (MDA-MB-435): 18.2 µM (inactive)
GI50 (U-251): 17.1 µM (inactive)
GI50 (HCT-15): 14.8 µM
GI50 (DU-145): 19.9 µM (inactive)
GI50 (SR): 28.8 µM (inactive)

O=C1c2cccc3cccc(c23)C(=O)N1CCN(CCO)CCO
GI50 (SK-OV-3): 55.1 µM (inactive)
GI50 (MOLT-4): 24.2 µM (inactive)
GI50 (LXFL 529): 32.3 µM (inactive)
GI50 (OVCAR-3): 33.8 µM (inactive)
GI50 (HCC 2998): 26.2 µM (inactive)
GI50 (EKVX): 31.1 µM (inactive)
GI50 (HL-60): > 100 µM (inactive)
GI50 (NCI-H23): 25.4 µM (inactive)
GI50 (ACHN): 23.9 µM (inactive)
GI50 (OVCAR-5): 20.9 µM (inactive)
GI50 (SNB-19): 38.3 µM (inactive)
GI50 (U-251): 32.4 µM (inactive)
GI50 (HCT-15): 22.8 µM
GI50 (SR): 11.3 µM (inactive)
